Assay results reported in patent publication US20250345344A1, “NOVEL NRF2 ACTIVATOR AND USE THEREOF” (SHANGHAI INSTITUTE FOR BIOMEDICAL AND PHARMACEUTICAL …, priority 2022, published 2025).

Legend:
ovarian granulosa cells = experiment: Protection of primary ovarian granulosa cells against doxorubicin (DOX) cytotoxicity, CCK-8; type: cell-based, mice; conditions: DOX alone, final concentration 25 μg/mL
Experimental: In-vitro-Culture of granulosa cells of mice. Female ICR mice aged 21 to 23 days were euthanized by dislocation after anesthesia. After disinfecting the abdominal skin with 75% alcohol, bilateral ovaries were taken out and antral follicles were punctured under dissecting microscope to release granulosa cells into a M2 culture medium containing 20% FBS. Then the culture medium was centrifuged at 1,000 revolutions per minute for 5 minutes. Supernatant was discarded, and residue was washed three times with a culture medium, and then was placed in a 96 well plate in an alpha MEM culture medium containing 5% FBS for further culture. […]
After the granulosa cells in a 96 well plate prolificated to 70% to 80%, the culture medium was taken out, and 10 μL of the test drug (C1 (a compound represented by Formula I, m is 3, R1 is OH, and R2 is H), C2 (a compound represented by Formula I, m is 3, R1 is Cl, and R2 is H), C3 (a compound represented by Formula I, m is 3, R1 is OCH3, and R2 is H), C4 (a compound represented by Formula I, m is 3, R1 is H, and R2 is H)), 10 μL of DOX with a final concentration of 25 μg/mL, and 80 μL of fresh culture medium were sequentially added. […] The absorbance (OD) value (450 nm) of each well was measured using an enzyme-linked immunosorbent assay (ELISA) reader to calculate the survival rate of granulosa cells of mice. […]

[1] = test system: Keap1-Nrf2/ARE signaling pathway; experiment: Western blot of Keap1-Nrf2/ARE pathway related proteins in H2O2 induced SH-SY5Y nerve cell injury model; type: cell-based, human; conditions: NAC 1 mM pre-treated 1 hour, then H2O2 400 μM 24 hours, P<0.05
Experimental: (§1) The culture of cells. Human neuroblastoma cells SH-SY5Y (American Type Culture Collection, Manassas, VA, USA) were cultivated in an incubator at 37° C. and a volume fraction of 5% CO2. The culture medium contains DMEM/F-12, 2 mM glutamine, 100 U/ml penicillin, 100 μg/ml streptomycin, and 10% FBS. Cells were seeded into a 96 well plate at a density of 2×10^4 cells per well and subjected to proliferation until 90%.
(§2) The cells were randomly divided into four groups: blank control group, hydrogen peroxide group (Veh), Mep-S group, and NAC group (a neuroprotective drug used as a positive control). The cells of Mep-S group (1 μM) and NAC group (1 mM) were pre-treated with corresponding concentrations of drugs for 1 hour. Then, except for the blank control group which was given physiological saline, the cells of all other groups were incubated with H2O2 (400 μM) for 24 hours.
Western blot was used to detect the expression levels of neuronal apoptosis protein (Caspase3) and Keap1-Nrf2/ARE pathway related proteins (Keap1, Nrf2, HO-1, NQO-1, etc.) in each group. The bands were visualized using enhanced chemiluminescence (Pierce, Rockford, IL, USA) and quantitative analysis was performed using Image Studio Lite 5.2.

SH-SY5Y cells = experiment: Annexin V/PI dual staining, apoptosis by flow cytometry in H2O2 injured SH-SY5Y cells; type: cell-based, human; conditions: NAC 1 mM pre-treated 1 hour, then H2O2 400 μM 24 hours; P<0.05
Experimental: as §1, §2
Annexin V/PI dual staining method was used to detect the protective effect of Mep-S on cellular oxidative damage. Cell apoptosis was measured by flow cytometry using FITC Annexin V apoptosis detection kit (BD Pharmingen, Franklin Lakes, NJ, USA). The operation was performed following the instructions.

[2] = compared with H2O2 damage group

SMILES	Cell survival rate (%) (ovarian granulosa cells; 24 hours, CCK-8 (positive control group))	growth of granulosa cells (in words) (ovarian granulosa cells; p<0.01 versus negative control)	phosphorylation level of Akt [1]	level of HO-1 protein [1, 2]	level of Keap 1 protein [1, 2]	level of NQO-1 protein [1, 2]	level of Nrf2 protein in the cell nucleus [1, 2]	level of Nrf2 protein in the cytoplasm [1, 2]	apoptosis rate of SH-SY5Y cells (SH-SY5Y cells)
COc1cccc2c1C(=O)c1c(O)c3c(c(O)c1C2=O)C[C@@](O)(C(=O)CO)C[C@@H]3O[C@H]1C[C@H](N)[C@H](O)[C@H](C)O1 [DOX, doxorubicin]	61.8	significantly inhibited the growth	–	–	–	–	–	–	–
CC(=O)N[C@@H](CS)C(=O)O [NAC]	–	–	significantly restores its expression level	significantly inhibits the decrease	inhibits the increase	significantly inhibits the decrease	significantly inhibits the decrease	inhibits the increase	significantly reduces the apoptosis rate
